Measured values: US11866412B1, “Acridin-9-one compounds as antibacterial agents” (KING FAISAL UNIVERSITY, priority 2023, dated 2024)
Values after ≈ are worked out from the molar mass of the structure shown. Read-outs that look alike come from different tables or passages of the source.

Key:
[1] = test system: Escherichia coli MTCC 443; assay: in vitro antibacterial activity, dilution MIC (CLSI M07-A10); type: cell-based; conditions: MTCC443
[2] = test system: Staphylococcus aureus ATCC BAA-1556 (MERSA resistant); assay: as above; type: cell-based; conditions: ATCCBAA1556
[3] = test system: Klebsiella pneumonia MTCC 618; assay: as above; type: cell-based; conditions: Klebsiella pneumoniae, MTCC618
[4] = test system: Enterococcus faecium ATCC 51559 (VRE resistant); assay: as above; type: cell-based
[5] = test system: Enterococcus faecium ATCC 35667; assay: as above; type: cell-based; conditions: ATCC35667
DNA gyrase from E. coli = target: T1, DNA gyrase from E. coli (Escherichia coli, UniProt P0AES4+P0AES6); assay: Inhibitory activities on E. coli DNA Gyrase (Inspiralis assay); type: biochemical
T1 construct: purchased Inspiralis
T1 sequence (P0AES4 whole entry, one chain of several): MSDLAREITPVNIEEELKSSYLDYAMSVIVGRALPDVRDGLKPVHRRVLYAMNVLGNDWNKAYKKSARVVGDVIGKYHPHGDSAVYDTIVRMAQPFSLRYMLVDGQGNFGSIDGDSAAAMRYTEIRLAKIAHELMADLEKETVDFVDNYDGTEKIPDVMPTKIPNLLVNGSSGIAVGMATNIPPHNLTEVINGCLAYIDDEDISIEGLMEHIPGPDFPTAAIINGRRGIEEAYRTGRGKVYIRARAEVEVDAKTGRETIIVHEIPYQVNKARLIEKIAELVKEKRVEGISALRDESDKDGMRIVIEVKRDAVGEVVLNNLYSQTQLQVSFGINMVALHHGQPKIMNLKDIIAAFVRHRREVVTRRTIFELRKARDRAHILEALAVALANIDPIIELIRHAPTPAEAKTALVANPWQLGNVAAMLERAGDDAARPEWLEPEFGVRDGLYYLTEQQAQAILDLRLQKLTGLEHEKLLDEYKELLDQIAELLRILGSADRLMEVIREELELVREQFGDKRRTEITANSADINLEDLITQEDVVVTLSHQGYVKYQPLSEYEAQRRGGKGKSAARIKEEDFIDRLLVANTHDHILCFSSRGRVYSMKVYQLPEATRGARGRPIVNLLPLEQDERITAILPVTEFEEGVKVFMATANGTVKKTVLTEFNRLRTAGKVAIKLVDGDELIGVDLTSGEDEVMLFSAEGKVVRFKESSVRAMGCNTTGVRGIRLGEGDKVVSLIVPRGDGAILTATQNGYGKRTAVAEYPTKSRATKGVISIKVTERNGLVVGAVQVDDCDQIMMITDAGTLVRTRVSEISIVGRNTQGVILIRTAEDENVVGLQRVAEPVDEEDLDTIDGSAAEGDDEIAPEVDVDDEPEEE
Experimental: First, the plates were rehydrated with buffer (20 mM Tris-HCl with pH 7.6, 0.01% w/v BSA, 0.05% v/v Tween 20, 137 mM NaCl) and the biotinylated oligonucleotide was then immobilized. After washing off the unbound oligonucleotide, the enzyme test was performed. […] Reaction solutions were incubated at 37° C. for 30 min. After that, the TF buffer (50 mM NaOAc with pH 5.0, 50 mM NaCl and 50 mM MgCl2) was added to terminate the enzymatic reaction. After additional incubation for 30 min at rt, during which biotinoligonucleotide-plasmid triplex was formed, the unbound plasmid was washed off using TF buffer and SybrGOLD in T10 buffer (10 mM Tris HCl with pH 8.0 and 1 mM EDTA) was added. The fluorescence was measured with a microplate reader (BioTek Synergy H4, excitation: 485 nm, emission: 535 nm). Initial screening was done at 100 or 10 μM concentration of inhibitors. […] GraphPad Prism software was used to calculate the IC50 values. The result is given as the average value of three independent measurements.

[6] = test system: Staphylococcus epidermidis; assay: in vitro antibacterial activity, dilution MIC (CLSI M07-A10); type: cell-based
[7] = test system: Bacillus subtilis MTCC 441; assay: as above; type: cell-based; conditions: MTCC441
[8] = test system: Pseudomonas aeruginosa MTCC 741; assay: as above; type: cell-based; conditions: MTCC741
[9] = test system: Staphylococcus aureus ATCC 29213; assay: as above; type: cell-based; conditions: ATCC29213
[10] = test system: H37Rv type of M. tuberculosis strains; assay: antitubercular alamar blue microplate MIC assay; type: cell-based; conditions: mycobacterium tuberculosis H37Rv strain, read-out: anti-mycobacterial activity (MIC)

SMILES	MIC [1]	MIC [2]	MIC ([3]; Klebsiella pneumonia MTCC 618, read-out: MIC)	MIC [4]	MIC [5]	IC50 (DNA gyrase from E. coli)	MIC [6]	MIC [7]	MIC [8]	MIC [9]	MIC [10]	MIC [3]
CCCCCN(C)Cc1ccc(C(=O)O)cc1-c1cnc2[nH]c3c(NC)cc(F)cc3c(=O)c2c1 [Compound 8, 3-(7-fluoro-9-(methylamino)-5-oxo-5,10-dihydrobenzo[b][1,8]naphthyridin-3-yl)-4-((methyl(pentyl)amino)methyl)benzoic acid]	2 µg/mL (≈ 4.2 µM)	0.75 µg/mL (≈ 1.57 µM)	0.75 µg/mL (≈ 1.57 µM)	0.1 µg/mL (≈ 0.21 µM)	0.1 µg/mL (≈ 0.21 µM)	11 nM	1 µg/mL (≈ 2.1 µM)	0.5 µg/mL (≈ 1.05 µM)	0.5 µg/mL (≈ 1.05 µM)	0.75 µg/mL (≈ 1.57 µM)	4 µg/mL (≈ 8.39 µM)	–
CN[C@H](CC(C)C)C(=O)N[C@H]1C(=O)N[C@@H](CC(N)=O)C(=O)N[C@H]2C(=O)N[C@H]3C(=O)N[C@H](C(=O)N[C@H](C(=O)O)c4cc(O)cc(O)c4-c4cc3ccc4O)[C@H](O)c3ccc(c(Cl)c3)Oc3cc2cc(c3O[C@@H]2O[C@H](CO)[C@@H](O)[C@H](O)[C@H]2O[C@H]2C[C@](C)(N)[C@H](O)[C@H](C)O2)Oc2ccc(cc2Cl)[C@H]1O [Vancomycin, reference compound]	–	–	–	–	–	–	–	–	–	–	–	> 128 µg/mL
